The source of these data is patent US20090215777A1, “Pyrimidine Derivatives As HSP90 Inhibitors” (Astex Therapeutics Ltd., priority 2005, published 2009).

The test has as its target T1, human Hsp90α N-terminal domain (Homo sapiens, UniProt P07900).
T1 construct: Cloning, expression, and purification of the Human Hsp90α N-terminal domain were performed according to published methods; made in house
The experiment in a line: Isothermal titration calorimetry (ITC). Particulars: 25 mM Tris, 100 mM NaCl, 1 mM MgCl2, 1 mM TCEP, 5% DMSO, pH 7.4. The class given is binding. Here is the method: The ability of the compounds of the invention to bind to human Hsp90 proteins was determined using isothermal titration calorimetry.
Isothermal titration calorimetry (ITC) experiments were performed with a VP-ITC titration calorimeter (Microcal Inc., Northampton, Mass., USA). […] All solutions were filtered and degassed prior to a titration being carried out. The enthalpy change resulting from each injection of ligand was obtained through integration of the calorimetric signal. Data were analysed using Origin 7.0 (Microcal Software Inc., Northampton, Mass.). Heats of dilution were estimated using the final injections of each individual titration and subtracted before data fitting. Different ITC experimental formats were employed in order to obtain compound dissociation constants (Kd's) over a wide range of affinities. […] In this type of experiment the stoichiometry parameter (N) was locked at 1 for data fitting.
Turning to `COc1cccc(OC)c1-c1cc(C)nc(N)n1` [Example 1, 4-(2,6-Dimethoxy-phenyl)-6-methyl-pyrimidin-2-ylamine], the Kd was below 10000 nM.

Regarding `COc1cccc(OC)c1-c1cc(Cl)nc(N)n1` [Example 4, 4-Chloro-6-(2,6-dimethoxy-phenyl)-pyrimidin-2-ylamine], the Kd was below 1000 nM.

On to `COc1cccc(OCC2CCOCC2)c1-c1cc(Cl)nc(N)n1` [Example 21, 4-Chloro-6-[2-methoxy-6-(tetrahydro-pyran-4-yl-methoxy)-phenyl]-pyrimidin-2-yl-amine], for which the Kd was below 1000 nM.

Regarding `COc1cc(OC)c(-c2cc(Cl)nc(N)n2)c(OC)c1` [Example 27, 4-Chloro-6-(2,4,6-trimethoxy-phenyl)-pyrimidin-2-yl-amine], the Kd is below 1000 nM.

The molecule `CCOc1ccc(-c2cc(Cl)nc(N)n2)c(Cl)c1` [Example 29] yielded a dissociation constant Kd below 1000 nM.

Molecule `Nc1nc(Cl)cc(-c2ccc(Cl)cc2Cl)n1` [Example 30, 4-Chloro-6-(2,4-dichloro-phenyl)-pyrimidin-2-yl-amine] came in with a Kd below 1000 nM.

As to `CCOc1ccc2ccccc2c1-c1cc(Cl)nc(N)n1` [Example 44, 4-Chloro-6-(2-ethoxy-naphthalen-1-yl)-pyrimidin-2-ylamine], the Kd was below 10000 nM.

With `COc1ccc(-c2ccccc2)c(OC)c1-c1cc(Cl)nc(N)n1` [Example 45, 4-Chloro-6-(2,4-dimethoxy-biphenyl-3-yl)-pyrimidin-2-ylamine], the Kd was below 10000 nM.

In the case of `COc1ccc(-c2c(OC)ccc(Br)c2OC)c(OC)c1-c1cc(Cl)nc(N)n1` [Example 46, 4-(3′-Bromo-2,4,2′,6′-tetramethoxy-biphenyl-3-yl)-6-chloro-pyrimidin-2-ylamine], the Kd was below 1000 nM.

With `COc1cccc(OCC(C)C)c1-c1cc(Cl)nc(N)n1` [Example 47, 4-Chloro-6-(2-isobutoxy-6-methoxy-phenyl)-pyrimidin-2-ylamine], the Kd is below 1000 nM.

Consider `COc1cccc(OCCN2CCOCC2)c1-c1cc(Cl)nc(N)n1` [Example 48, 4-Chloro-6-[2-methoxy-6-(2-morpholin-4-yl-ethoxy)-phenyl]-pyrimidin-2-ylamine], for which the Kd is below 1000 nM.

The molecule `COc1ccc(Cl)c(-c2cc(Cl)nc(N)n2)c1` [Example 49, 4-Chloro-6-(2-chloro-5-methoxy-phenyl)-pyrimidin-2-ylamine] registered a Kd below 1000 nM.

As to `Nc1nc(Cl)cc(-c2ccncc2Cl)n1` [Example 50, 4-Chloro-6-(3-chloro-pyridin-4-yl)-pyrimidin-2-ylamine], the Kd was below 1000 nM.

`COc1ccc2ccccc2c1-c1cc(Cl)nc(N)n1` [Example 51, 4-Chloro-6-(2-methoxy-naphthalen-1-yl)-pyrimidin-2-ylamine] gave a Kd below 1000 nM.

Turning to `COc1cccc(OCCN2CCCCC2)c1-c1cc(Cl)nc(N)n1` [Example 52, 4-Chloro-6-[2-methoxy-6-(2-piperidin-1-yl-ethoxy)-phenyl]-pyrimidin-2-ylamine], the dissociation constant (Kd) is below 10000 nM.

Regarding `CC(C)(C)OC(=O)NCCCOc1cccc(Cl)c1-c1cc(Cl)nc(N)n1` [Example 53, {3-[2-(2-Amino-6-chloro-pyrimidin-4-yl)-3-chloro-phenoxy]-propyl}-carbamic acid tert-butyl ester], the Kd is below 1000 nM.

With `CN(C)CCCOc1cccc(Cl)c1-c1cc(Cl)nc(N)n1` [Example 54], the Kd is below 1000 nM.

Regarding `CN(C)CCOc1cccc(Cl)c1-c1cc(Cl)nc(N)n1` [Example 55, 4-Chloro-6-[2-chloro-6-(2-dimethylamino-ethoxy)-phenyl]-pyrimidin-2-yl amine], the Kd is below 1000 nM.

Consider `NCCOc1cccc(Cl)c1-c1cc(Cl)nc(N)n1` [Example 56, 4-[2-(2-Amino-ethoxy)-6-chloro-phenyl]-6-chloro-pyrimidin-2-yl-amine], for which the Kd was below 1000 nM.

`CC(C)(C)OC(=O)NCCOc1cccc(Cl)c1-c1cc(Cl)nc(N)n1` [Example 57] showed a Kd below 1000 nM.

Regarding `COc1ccccc1-c1cc(C(F)F)nc(N)n1` [Example 58, 4-Difluoro-methyl-6-(2-methoxy-phenyl)-pyrimidin-2-ylamine], the Kd is below 30000 nM.

As to `COc1cc(Cl)cc(Cl)c1-c1cc(Cl)nc(N)n1` [Example 59, 4-Chloro-6-(2,4-dichloro-6-methoxy-phenyl)-pyrimidin-2-ylamine], the Kd is below 1000 nM.

Molecule `Nc1nccc(-c2ccc(Cl)cc2Cl)n1` [Example 60, 4-(2,4-Dichloro-phenyl)-pyrimidin-2-ylamine] returned a Kd below 10000 nM.

In turn, `COc1cc(-c2cc(Cl)nc(N)n2)c(Cl)cc1Cl` [Example 61, 4-Chloro-6-(2,4-dichloro-5-methoxy-phenyl)-pyrimidin-2-ylamine] yielded a Kd below 1000 nM.

As for `Nc1ncc(Br)c(-c2ccc(Cl)cc2Cl)n1` [Example 62, 5-Bromo-4-(2,4-dichloro-phenyl)-pyrimidin-2-ylamine], the Kd was below 30000 nM.

The molecule `Nc1ncc(-c2cn[nH]c2)c(-c2ccc(Cl)cc2Cl)n1` [Example 63, 4-(2,4-Dichloro-phenyl)-5-(1H-pyrazol-4-yl)-pyrimidin-2-ylamine] displayed a Kd below 10000 nM.

Molecule `Nc1nc(Cl)cc(-c2ccc(O)cc2Cl)n1` [Example 64, 4-(2-Amino-6-chloro-pyrimidin-4-yl)-3-chloro-phenol] had a Kd below 1000 nM.

For the molecule `CC(C)Oc1ccc(-c2cc(Cl)nc(N)n2)c(Cl)c1` [Example 65, 4-Chloro-6-(2-chloro-4-isopropoxy-phenyl)-pyrimidin-2-ylamine], the Kd is below 1000 nM.

The molecule `CCOC(=O)COc1ccc(-c2cc(Cl)nc(N)n2)c(Cl)c1` [Example 66, [4-(2-Amino-6-chloropyrimidin-4-yl)-3-chloro-phenoxy]-acetic acid ethyl ester] returned a Kd below 1000 nM.

`CCOC(=O)C(C)Oc1ccc(-c2cc(Cl)nc(N)n2)c(Cl)c1` (stereo not shown) [Example 67] yielded a Kd below 1000 nM.

Turning to `CCOC(=O)C(C)(C)Oc1ccc(-c2cc(Cl)nc(N)n2)c(Cl)c1` [Example 68, 2-[4-(2-Amino-6-chloro-pyrimidin-4-yl)-3-chloro-phenoxy]-2-methyl-propionic acid ethyl ester], the equilibrium dissociation constant (Kd) was below 1000 nM.

`COc1cccc(-c2cc(Cl)nc(N)n2)c1Cl` [Example 69, 4-Chloro-6-(2-chloro-3-methoxy-phenyl)-pyrimidin-2-yl-amine]: the dissociation constant Kd was below 1000 nM.

Take `COc1cccc(-c2cc(Cl)nc(N)n2)c1OC` [Example 70, 4-Chloro-6-(2,3-dimethoxy-phenyl)-pyrimidin-2-yl-amine]: the Kd is below 1000 nM.

As for `COc1c(CC(C)(C)C)cccc1-c1cc(Cl)nc(N)n1` [Example 71, 4-Chloro-6-[3-(2,2-dimethyl-propyl)-2-methoxy-phenyl]-pyrimidin-2-yl-amine], the Kd was below 1000 nM.

In turn, `CC(C)(C)Cc1cccc(-c2cc(Cl)nc(N)n2)c1Cl` [Example 72, 4-Chloro-6-[2-chloro-3-(2,2-dimethyl-propyl)phenyl]-pyrimidin-2-yl-amine] registered a Kd below 1000 nM.

Molecule `COc1ccc(-c2cc(Cl)nc(N)n2)c(Cl)c1` [Example 73, 4-Chloro-6-(2-chloro-4-methoxy-phenyl)-pyrimidin-2-ylamine] displayed a Kd below 1000 nM.

In the case of `CN(C)CCOc1ccc(-c2cc(Cl)nc(N)n2)c(Cl)c1` [Example 74, 4-Chloro-6-[2-chloro-4-(2-dimethylamino-ethoxy)-phenyl]-pyrimidin-2-yl amine], the Kd was below 10000 nM.

The molecule `CC(C#N)Oc1ccc(-c2cc(Cl)nc(N)n2)c(Cl)c1` (stereo not shown) [Example 75, 2-[4-(2-Amino-6-chloro-pyrimidin-4-yl)-3-chloro-phenoxy]-propionitrile] yielded a Kd below 1000 nM.

In the case of `Cc1cccc(-c2cc(Cl)nc(N)n2)c1Cl` [Example 76, 4-Chloro-6-(2-chloro-3-methyl-phenyl)-pyrimidin-2-yl-amine], the Kd was below 1000 nM.

`Nc1nc(Cl)cc(-c2cc(O)c(Cl)cc2Cl)n1` [Example 77, 5-(2-Amino-6-chloro-pyrimidin-4-yl)-2,4-dichloro-phenol]: the Kd was below 1000 nM.

`Nc1nc(Cl)cc(-c2cc(OCc3ccccc3)c(Cl)cc2Cl)n1` [Example 78, 4-(5-Benzyloxy-2,4-dichloro-phenyl)-6-chloro-pyrimidin-2-yl-amine] registered a dissociation constant Kd below 1000 nM.

In the case of `CCN(CC)CCOc1cc(-c2cc(Cl)nc(N)n2)c(Cl)cc1Cl` [Example 79, 4-Chloro-6-[2,4-dichloro-5-(2-diethylamino-ethoxy)-phenyl]-pyrimidin-2-yl-amine], the Kd was below 1000 nM.

Regarding `Nc1nc(Cl)cc(-c2cc(OCCN3CCOCC3)c(Cl)cc2Cl)n1` [Example 80, 4-Chloro-6-[2,4-dichloro-5-(2-morpholin-4-yl-ethoxy)-phenyl]-pyrimidin-2-yl-amine], the Kd was below 1000 nM.

The molecule `NC(=O)COc1cc(-c2cc(Cl)nc(N)n2)c(Cl)cc1Cl` [Example 81, 2-[5-(2-Amino-6-chloro-pyrimidin-4-yl)-2,4-dichloro-phenoxy]-acetamide] came in with a Kd below 1000 nM.

`CC(C)(C)OC(=O)N1CCC(COC(=O)C(C)(C)Oc2ccc(-c3cc(Cl)nc(N)n3)c(Cl)c2)CC1` [Example 82, 4-{2-[4-(2-Amino-6-chloro-pyrimidin-4-yl)-3-chloro-phenoxy]-2-methyl-propionyloxy-methyl}-piperidine-1-carboxylic acid tert-butyl ester] gave a Kd below 1000 nM.

As for `CC(C)(Oc1ccc(-c2cc(Cl)nc(N)n2)c(Cl)c1)C(=O)OCC1CCNCC1` [Example 83, 2-[4-(2-Amino-6-chloro-pyrimidin-4-yl)-3-chloro-phenoxy]-2-methyl-prop-ionic acid piperidin-4-ylmethyl ester], the Kd was below 1000 nM.
